System: 126254-015-R-J1-PDC complex spheroid growth, % test/control
Assay: Anticancer human tumor 126254-015-R-J1-PDC patient-derived soft tissue sarcoma cell line growth inhibition [Asc]
Details: for IC50: curve of first compound; for viability, T/C: stronger effect = lower value
In short: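 Concentration series start at each agent's clinical Cmax, or at 10 microM when none is established, and drop in half-log steps; agents are applied alone or together to complex spheroids built with HUVEC and hMSC.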

[1] = second compound 0.01 µM, first compound 0.0316 µM
[2] = second compound 0.01 µM, first compound 0.1 µM
[3] = second compound 0.01 µM, first compound 0.316 µM
[4] = second compound 0.01 µM, first compound 1 µM
[5] = second compound 0.01 µM, first compound 3.16 µM
[6] = second compound 0.01 µM, first compound 10 µM
[7] = second compound 0.0316 µM, first compound 0.0316 µM
[8] = second compound 0.0316 µM, first compound 0.1 µM
[9] = second compound 0.0316 µM, first compound 0.316 µM
[10] = second compound 0.0316 µM, first compound 1 µM
[11] = second compound 0.0316 µM, first compound 3.16 µM
[12] = second compound 0.0316 µM, first compound 10 µM
[13] = second compound 0.1 µM, first compound 0.0316 µM
[14] = second compound 0.1 µM, first compound 0.1 µM
[15] = second compound 0.1 µM, first compound 0.316 µM
[16] = second compound 0.1 µM, first compound 1 µM
[17] = second compound 0.1 µM, first compound 3.16 µM
[18] = second compound 0.1 µM, first compound 10 µM
[19] = second compound 0.316 µM, first compound 0.0316 µM
[20] = second compound 0.316 µM, first compound 0.1 µM
[21] = second compound 0.316 µM, first compound 0.316 µM
[22] = second compound 0.316 µM, first compound 1 µM
[23] = second compound 0.316 µM, first compound 3.16 µM
[24] = second compound 0.316 µM, first compound 10 µM
[25] = second compound 1 µM, first compound 0.0316 µM
[26] = second compound 1 µM, first compound 0.1 µM
[27] = second compound 1 µM, first compound 0.316 µM
[28] = second compound 1 µM, first compound 1 µM
[29] = second compound 1 µM, first compound 3.16 µM
[30] = second compound 1 µM, first compound 10 µM
[31] = second compound 0.01 µM, first compound 0.00949 µM
[32] = second compound 0.01 µM, first compound 0.03 µM
[33] = second compound 0.01 µM, first compound 0.0949 µM
[34] = second compound 0.01 µM, first compound 0.3 µM
[35] = second compound 0.01 µM, first compound 0.949 µM
[36] = second compound 0.01 µM, first compound 3 µM
[37] = second compound 0.0316 µM, first compound 0.00949 µM
[38] = second compound 0.0316 µM, first compound 0.03 µM
[39] = second compound 0.0316 µM, first compound 0.0949 µM
[40] = second compound 0.0316 µM, first compound 0.3 µM
[41] = second compound 0.0316 µM, first compound 0.949 µM
[42] = second compound 0.0316 µM, first compound 3 µM
[43] = second compound 0.1 µM, first compound 0.00949 µM
[44] = second compound 0.1 µM, first compound 0.03 µM
[45] = second compound 0.1 µM, first compound 0.0949 µM
[46] = second compound 0.1 µM, first compound 0.3 µM
[47] = second compound 0.1 µM, first compound 0.949 µM
[48] = second compound 0.1 µM, first compound 3 µM
[49] = second compound 0.316 µM, first compound 0.00949 µM
[50] = second compound 0.316 µM, first compound 0.03 µM
[51] = second compound 0.316 µM, first compound 0.0949 µM
[52] = second compound 0.316 µM, first compound 0.3 µM
[53] = second compound 0.316 µM, first compound 0.949 µM
[54] = second compound 0.316 µM, first compound 3 µM
[55] = second compound 1 µM, first compound 0.00949 µM
[56] = second compound 1 µM, first compound 0.03 µM
[57] = second compound 1 µM, first compound 0.0949 µM
[58] = second compound 1 µM, first compound 0.3 µM
[59] = second compound 1 µM, first compound 0.949 µM
[60] = second compound 1 µM, first compound 3 µM
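Note: spheroids exposed to compound for seven days.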
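Throughout, for viability, T/C: 100% = DMSO vehicle control wells.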

C#Cc1c(F)ccc2cc(O)cc(-c3ncc4c(N5CC6CCC(C5)N6)nc(OCC56CCCN5CC(F)C6)nc4c3F)c12 (stereo not given) + CNC(C)C(=O)NC1CN(S(=O)(=O)c2cccc(S(=O)(=O)N3CCC4CCC(C(=O)NC(c5ccccc5)c5ccccc5)N4C(=O)C(NC(=O)C(C)NC)C3)c2)CCC2CCC(C(=O)NC(c3ccccc3)c3ccccc3)N2C1=O
IC50 (second compound 0.01 µM): > 10 µM | IC50 (second compound 0.0316 µM): 7.58 µM | IC50 (second compound 0.1 µM): 3.97 µM | IC50 (second compound 0.316 µM): 8.98 µM | IC50 (second compound 1 µM): 0.895 µM | viability, T/C [1]: 77.7% | viability, T/C [2]: 81.8% | viability, T/C [3]: 78.5% | viability, T/C [4]: 73% | viability, T/C [5]: 81.7% | viability, T/C [6]: 63.7% | viability, T/C [7]: 69.6% | viability, T/C [8]: 69.4% | viability, T/C [9]: 71.5% | viability, T/C [10]: 64.8% | viability, T/C [11]: 61.6% | viability, T/C [12]: 46.4% | viability, T/C [13]: 68% | viability, T/C [14]: 62.4% | viability, T/C [15]: 65.9% | viability, T/C [16]: 54.1% | viability, T/C [17]: 55.6% | viability, T/C [18]: 40.5% | viability, T/C [19]: 58.4% | viability, T/C [20]: 58.7% | viability, T/C [21]: 55.6% | viability, T/C [22]: 58.4% | viability, T/C [23]: 50.6% | viability, T/C [24]: 48.1% | viability, T/C [25]: 55.8% | viability, T/C [26]: 49.5% | viability, T/C [27]: 56.1% | viability, T/C [28]: 47.8% | viability, T/C [29]: 46.7% | viability, T/C [30]: 40.9%

C=C(F)C(=O)N1CCN(c2nc(OCC3CCCN3C)nc3c2CCN(c2cccc4cccc(Cl)c24)C3)CC1CC#N (stereo not given) + CNC(C)C(=O)NC1CN(S(=O)(=O)c2cccc(S(=O)(=O)N3CCC4CCC(C(=O)NC(c5ccccc5)c5ccccc5)N4C(=O)C(NC(=O)C(C)NC)C3)c2)CCC2CCC(C(=O)NC(c3ccccc3)c3ccccc3)N2C1=O
IC50 (second compound 0.01 µM): 2.55 µM | IC50 (second compound 0.0316 µM): 2.2 µM | IC50 (second compound 0.1 µM): 1.34 µM | IC50 (second compound 0.316 µM): 1.21 µM | IC50 (second compound 1 µM): 0.505 µM | viability, T/C [1]: 80% | viability, T/C [2]: 89.3% | viability, T/C [3]: 80.1% | viability, T/C [4]: 74.8% | viability, T/C [5]: 44.3% | viability, T/C [6]: 0.18% | viability, T/C [7]: 71.4% | viability, T/C [8]: 71% | viability, T/C [9]: 71.4% | viability, T/C [10]: 63.9% | viability, T/C [11]: 43.5% | viability, T/C [12]: 0.14% | viability, T/C [13]: 61% | viability, T/C [14]: 67.3% | viability, T/C [15]: 64.6% | viability, T/C [16]: 53.2% | viability, T/C [17]: 35.2% | viability, T/C [18]: 0.14% | viability, T/C [19]: 65.4% | viability, T/C [20]: 66.1% | viability, T/C [21]: 64% | viability, T/C [22]: 45% | viability, T/C [23]: 40.7% | viability, T/C [24]: 0.15% | viability, T/C [25]: 58.7% | viability, T/C [26]: 59.2% | viability, T/C [27]: 57.5% | viability, T/C [28]: 40.4% | viability, T/C [29]: 27.4% | viability, T/C [30]: 0.2%

C=CC(=O)N1CCN(c2nc(=O)n(-c3c(C)ccnc3C(C)C)c3nc(-c4c(O)cccc4F)c(F)cc23)C(C)C1 (stereo not given) + CNC(C)C(=O)NC1CN(S(=O)(=O)c2cccc(S(=O)(=O)N3CCC4CCC(C(=O)NC(c5ccccc5)c5ccccc5)N4C(=O)C(NC(=O)C(C)NC)C3)c2)CCC2CCC(C(=O)NC(c3ccccc3)c3ccccc3)N2C1=O
IC50 (second compound 0.01 µM): > 10 µM | IC50 (second compound 0.0316 µM): > 10 µM | IC50 (second compound 0.1 µM): > 10 µM | IC50 (second compound 0.316 µM): > 10 µM | IC50 (second compound 1 µM): > 10 µM | viability, T/C [1]: 94.4% | viability, T/C [2]: 99.5% | viability, T/C [3]: 94.5% | viability, T/C [4]: 110% | viability, T/C [5]: 101% | viability, T/C [6]: 82.3% | viability, T/C [7]: 85.1% | viability, T/C [8]: 84.8% | viability, T/C [9]: 86.7% | viability, T/C [10]: 84.2% | viability, T/C [11]: 87.1% | viability, T/C [12]: 75.2% | viability, T/C [13]: 70.7% | viability, T/C [14]: 78% | viability, T/C [15]: 81.5% | viability, T/C [16]: 75.7% | viability, T/C [17]: 82.7% | viability, T/C [18]: 67.3% | viability, T/C [19]: 69.2% | viability, T/C [20]: 77.2% | viability, T/C [21]: 71.5% | viability, T/C [22]: 70.9% | viability, T/C [23]: 73.9% | viability, T/C [24]: 67.7% | viability, T/C [25]: 62.8% | viability, T/C [26]: 72.4% | viability, T/C [27]: 67.5% | viability, T/C [28]: 72% | viability, T/C [29]: 70.3% | viability, T/C [30]: 65.5%

CCN1C(C(=O)NC23CCC(C(=O)O)(CC2)CC3)C(c2cccc(Cl)c2F)C2(C(=O)Nc3cc(Cl)ccc32)C12CCCCC2 (stereo not given) + CNC(C)C(=O)NC1CN(S(=O)(=O)c2cccc(S(=O)(=O)N3CCC4CCC(C(=O)NC(c5ccccc5)c5ccccc5)N4C(=O)C(NC(=O)C(C)NC)C3)c2)CCC2CCC(C(=O)NC(c3ccccc3)c3ccccc3)N2C1=O
IC50 (second compound 0.01 µM): > 3 µM | IC50 (second compound 0.0316 µM): > 3 µM | IC50 (second compound 0.1 µM): > 3 µM | IC50 (second compound 0.316 µM): > 3 µM | IC50 (second compound 1 µM): > 3 µM | viability, T/C [31]: 88.3% | viability, T/C [32]: 86.9% | viability, T/C [33]: 87.7% | viability, T/C [34]: 77.1% | viability, T/C [35]: 79.8% | viability, T/C [36]: 81.2% | viability, T/C [37]: 74.4% | viability, T/C [38]: 69.4% | viability, T/C [39]: 70.2% | viability, T/C [40]: 74.5% | viability, T/C [41]: 66.4% | viability, T/C [42]: 72.3% | viability, T/C [43]: 66% | viability, T/C [44]: 70% | viability, T/C [45]: 67.4% | viability, T/C [46]: 64.6% | viability, T/C [47]: 67.7% | viability, T/C [48]: 66.5% | viability, T/C [49]: 54.8% | viability, T/C [50]: 68% | viability, T/C [51]: 60.7% | viability, T/C [52]: 57.2% | viability, T/C [53]: 61% | viability, T/C [54]: 73% | viability, T/C [55]: 52.8% | viability, T/C [56]: 60.8% | viability, T/C [57]: 61.1% | viability, T/C [58]: 64% | viability, T/C [59]: 61.5% | viability, T/C [60]: 63.2%

Cc1nc(N2CCC3(CC2)COC(C)C3N)c(CO)nc1Sc1ccnc(N)c1Cl (stereo not given) + CNC(C)C(=O)NC1CN(S(=O)(=O)c2cccc(S(=O)(=O)N3CCC4CCC(C(=O)NC(c5ccccc5)c5ccccc5)N4C(=O)C(NC(=O)C(C)NC)C3)c2)CCC2CCC(C(=O)NC(c3ccccc3)c3ccccc3)N2C1=O
IC50 (second compound 0.01 µM): 2.52 µM | IC50 (second compound 0.0316 µM): 0.893 µM | IC50 (second compound 0.1 µM): 0.443 µM | IC50 (second compound 0.316 µM): 0.264 µM | IC50 (second compound 1 µM): 0.196 µM | viability, T/C [31]: 93.8% | viability, T/C [32]: 91.4% | viability, T/C [33]: 76.8% | viability, T/C [34]: 65.9% | viability, T/C [35]: 63.4% | viability, T/C [36]: 46.8% | viability, T/C [37]: 76% | viability, T/C [38]: 73.8% | viability, T/C [39]: 67.9% | viability, T/C [40]: 67.5% | viability, T/C [41]: 48.4% | viability, T/C [42]: 42.2% | viability, T/C [43]: 72.7% | viability, T/C [44]: 63% | viability, T/C [45]: 57.6% | viability, T/C [46]: 52.5% | viability, T/C [47]: 49.4% | viability, T/C [48]: 35.5% | viability, T/C [49]: 57.8% | viability, T/C [50]: 55.4% | viability, T/C [51]: 56.3% | viability, T/C [52]: 52.1% | viability, T/C [53]: 38.6% | viability, T/C [54]: 41.9% | viability, T/C [55]: 57.6% | viability, T/C [56]: 59.6% | viability, T/C [57]: 59.6% | viability, T/C [58]: 44.7% | viability, T/C [59]: 30% | viability, T/C [60]: 33.5%

— PubChem BioAssay AID1963429 (Molecular Pharmacology Branch, DTP, NCI, 2024)
